Key:
[1] = test system: giant foxtail; test: Test C postemergence; type: in vivo, Setaria faberii
From the text: (§1) Seeds of plant species selected from blackgrass (Alopecurus myosuroides), Italian ryegrass (Lolium multiflorum), wheat, winter (winter wheat, Triticum aestivum), galium (catchweed bedstraw, Galium aparine), corn (Zea mays), large (Lg) crabgrass (Digitaria sanguinalis), giant foxtail (Setaria faberii), johnsongrass (Sorghum halepense), lambsquarters (Chenopodium album), morningglory (Ipomoea coccinea), yellow nutsedge (Cyperus esculentus), pigweed (Amaranthus retroflexus), ragweed (common ragweed, Ambrosia elatior), soybean (Glycine max), barnyardgrass (Echinochloa crus-galli), oilseed rape (Brassica napus), waterhemp (common waterhemp, Amaranthus rudis), kochia (Kochia scoparia), wild oat (Avena fatua), surinam grass (Brachiaria decumbens), foxtail, green (green foxtail, Setaria viridis), goosegrass (Eleusine indica), bromegrass, downy (downy bromegrass, Bromus tectorum), nightshade (eastern black nightshade, Solanum ptycanthum), cocklebur (common cocklebur, Xanthium strumarium), cupgrass, woolly (woolly cupgrass, Eriochloa villosa), bermudagrass (Cynodon dactylon), sunflower, (common oilseed sunflower, Helianthus annuus), Russian thistle (Salsola kali), and velvetleaf (Abutilon theophrasti) were planted into a blend of loam soil and sand and treated preemergence with test chemicals formulated in a non-phytotoxic solvent mixture which included a surfactant.
(§2) At the same time, plants selected from these crop and weed species and also barley, winter (winter barley, Hordeum vulgare), windgrass (Apera spica-venti), chickweed (common chickweed, Stellaria media), deadnettle (henbit deadnettle, Lamium amplexicaule), and canarygrass (littleseed canarygrass, Phalaris minor) were planted in pots containing Redi-Earth® planting medium (Scotts Company, 14111 Scottslawn Road, Marysville, Ohio 43041) comprising spaghnum peat moss, vermiculite, wetting agent and starter nutrients and treated with postemergence applications of test chemicals formulated in the same manner. Plants ranged in height from 2 to 18 cm (1- to 4-leaf stage) for postemergence treatments. Treated plants and controls were maintained in a greenhouse for 13 to 15 days, after which time all species were compared to controls and visually evaluated. Plant response ratings, summarized in Table C, are based on a scale of 0 to 100 where 0 is no effect and 100 is complete control. A dash (-) response means no test result.

[2] = test system: large (Lg) crabgrass; test: Test A preemergence; type: in vivo, Digitaria sanguinalis; conditions: 1000 g ai/ha, 0 to 100 scale, 0 no effect, 100 complete control
Summary of the method: (§3)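 Injury scores run from 0, no effect, to 100, complete control, judged by eye against untreated plants roughly 10 days after treatment. Chemicals carried a surfactant in a non-phytotoxic solvent and went onto loam–sand soil preemergence or onto one- to two-leaf seedlings postemergence.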

[3] = test system: wild oat; test: Test C postemergence; type: in vivo, Avena fatua; conditions: for Plant response rating, Oat, Wild: scale 0 to 100 (0 no effect, 100 complete control)
From the text: as §1, §2

[4] = test system: blackgrass; test: Test C postemergence; type: in vivo, Alopecurus myosuroides
From the text: as §1, §2

[5] = test system: yellow nutsedge; test: Test C preemergence; type: in vivo, Cyperus esculentus; conditions: for Nutsedge, Yellow plant response rating: preemergence; for Plant response rating, Nutsedge, Yellow: Preemergence, 31 g ai/ha, scale 0 to 100, 0 no effect, 100 complete control
Summary of the method: (§4)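 Preemergence: seeds sown in a loam soil–sand blend and sprayed with test chemical in a non-phytotoxic solvent mixture containing surfactant. Postemergence: plants at 2 to 18 cm (1- to 4-leaf stage) in peat-based medium, treated with the same formulation. Greenhouse 13 to 15 days, then visual rating 0 (no effect) to 100 (complete control).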

[6] = test system: pigweed; test: Test A preemergence; type: in vivo, Amaranthus retroflexus; conditions: for Pigweed plant response rating: 0 to 100 scale, 0 no effect, 100 complete control, approx. 10 days
Summary of the method: as §3

[7] = test system: soybean; test: Test C preemergence; type: in vivo, Glycine max; conditions: for Soybean plant response rating: preemergence; for Plant response rating, Soybean: Preemergence, 31 g ai/ha, scale 0 to 100, 0 no effect, 100 complete control
Summary of the method: as §4

[8] = test system: morningglory; test: Test C preemergence; type: in vivo, Ipomoea coccinea; conditions: for Morningglory plant response rating: preemergence; for Plant response rating, Morningglory: Preemergence, 31 g ai/ha, scale 0 to 100, 0 no effect, 100 complete control
Summary of the method: as §4

[9] = test system: chickweed; test: Test C postemergence; type: in vivo, Stellaria media
From the text: as §1, §2

[10] = test system: ragweed; test: Test C preemergence; type: in vivo, Ambrosia elatior; conditions: for Ragweed plant response rating: preemergence; for Plant response rating, Ragweed: Preemergence, 31 g ai/ha, scale 0 to 100, 0 no effect, 100 complete control
Summary of the method: as §4

[11] = test system: corn; test: Test C postemergence; type: in vivo, Zea mays
From the text: as §1, §2

[12] = test system: barnyardgrass; test: Test C postemergence; type: in vivo, Echinochloa crus-galli
From the text: as §1, §2

[13] = test system: pigweed; test: Test C preemergence; type: in vivo, Amaranthus retroflexus; conditions: for Pigweed plant response rating: preemergence; for Plant response rating, Pigweed: Preemergence, 31 g ai/ha, scale 0 to 100, 0 no effect, 100 complete control
Summary of the method: as §4

[14] = test system: Italian ryegrass; test: Test C preemergence; type: in vivo, Lolium multiflorum; conditions: for Ryegrass, Italian plant response rating: preemergence; for Plant response rating, Ryegrass, Italian: Preemergence, 31 g ai/ha, scale 0 to 100, 0 no effect, 100 complete control
Summary of the method: as §4

[15] = test system: wheat, winter; test: Test C postemergence; type: in vivo, Triticum aestivum; conditions: for Plant response rating, Wheat: scale 0 to 100 (0 no effect, 100 complete control)
From the text: as §1, §2

[16] = test system: blackgrass; test: Test C preemergence; type: in vivo, Alopecurus myosuroides; conditions: for Blackgrass plant response rating: preemergence; for Plant response rating, Blackgrass: Preemergence, 31 g ai/ha, scale 0 to 100, 0 no effect, 100 complete control
Summary of the method: as §4

[17] = 16 g ai/ha, postemergence, 0 is no effect, 100 is complete control
[18] = 125 g ai/ha, postemergence, visual rating, scale 0 to 100 (0 no effect, 100 complete control)
[19] = Postemergence, 62 g ai/ha, scale 0 to 100 (0 no effect, 100 complete control)
[20] = 125 g ai/ha, postemergence, visual rating
[21] = Postemergence, 31 g ai/ha, scale 0 to 100 (0 no effect, 100 complete control), 13 to 15 days
[22] = 16 g ai/ha, scale 0 to 100 (0 no effect, 100 complete control)
[23] = 62 g ai/ha, scale 0 (no effect) to 100 (complete control)
[24] = 125 g ai/ha, scale 0 (no effect) to 100 (complete control)
[25] = 16 g ai/ha, postemergence, visual rating, scale 0 to 100 (0 no effect, 100 complete control), 13 to 15 days
[26] = Postemergence, 31 g ai/ha, 13 to 15 days

For `N#Cc1cn(-c2c(Br)cccc2Oc2ncc(Cl)cn2)nn1` [Compound 116], the “Plant response rating (0 to 100), Foxtail, Giant” value [1, 17] was 30, the “Plant response rating, Foxtail, Giant” value [1, 18] was 10 and the “Plant response rating, Foxtail, Giant” value [1, 19] was 40. For the same molecule, the “Plant response rating, Crabgrass, Large” value [2] was 100, the “Plant response rating (0 to 100), Oat, Wild” value [3, 17] was 5 and the “Plant response rating, Oat, Wild” value [3, 20] was 15. For the same molecule, the “Plant response rating, Oat, Wild” value ([3]; Postemergence, 62 g ai/ha) was 5, the “Plant response rating (0 to 100), Blackgrass” value [4, 17] was 0 and the “Plant response rating, Blackgrass” value [4, 18] was 25. For the same molecule, the “Plant response rating, Blackgrass” value [4, 21] was 5, the “Plant response rating, Blackgrass” value [4, 19] was 10 and the “Nutsedge, Yellow plant response rating” value [5, 22] was 0. For the same molecule, the “Nutsedge, Yellow plant response rating” value [5, 23] was 10, the “Nutsedge, Yellow plant response rating” value [5, 24] was 40 and the “Plant response rating, Nutsedge, Yellow” value [5] was 5. The “Pigweed plant response rating” value ([6]; 1000 g ai/ha) was 100, the “Soybean plant response rating” value [7, 22] was 0 and the “Soybean plant response rating” value [7, 23] was 40. The “Soybean plant response rating” value [7, 24] was 70, the “Plant response rating, Soybean” value [7] was 25 and the “Morningglory plant response rating” value [8, 22] was 0. The “Morningglory plant response rating” value [8, 23] was 20, the “Morningglory plant response rating” value [8, 24] was 20 and the “Plant response rating, Morningglory” value [8] was 5. The “Plant response rating (0 to 100), Chickweed” value [9, 17] was 40, the “Plant response rating, Chickweed” value [9, 18] was 80 and the “Plant response rating, Chickweed” value [9, 19] was 55. For the same molecule, the “Ragweed plant response rating” value [10, 22] was 0, the “Ragweed plant response rating” value [10, 23] was 45 and the “Ragweed plant response rating” value [10, 24] was 45. The “Plant response rating, Ragweed” value [10] was 5, the “Plant response rating (0 to 100), Corn” value [11, 17] was 0 and the “Plant response rating, Corn” value [11, 18] was 5. For the same molecule, the “Plant response rating, Corn” value [11, 19] was 5, the “Plant response rating (0 to 100), Barnyardgrass” value [12, 17] was 0 and the “Plant response rating, Barnyardgrass” value [12, 18] was 20. The “Plant response rating, Barnyardgrass” value [12, 21] was 5, the “Plant response rating, Barnyardgrass” value [12, 19] was 5 and the “Pigweed plant response rating” value [13, 22] was 75. For the same molecule, the “Pigweed plant response rating” value [13, 23] was 100, the “Pigweed plant response rating” value [13, 24] was 100 and the “Plant response rating, Pigweed” value [13] was 100. For the same molecule, the “Ryegrass, Italian plant response rating” value [14, 22] was 0, the “Ryegrass, Italian plant response rating” value [14, 23] was 10 and the “Ryegrass, Italian plant response rating” value [14, 24] was 35. The “Plant response rating, Ryegrass, Italian” value [14] was 0, the “Plant response rating (0 to 100), Wheat” value [15, 17] was 0 and the “Plant response rating, Wheat” value [15, 20] was 5. For the same molecule, the “Plant response rating, Wheat” value ([15]; Postemergence, 62 g ai/ha) was 5, the “Blackgrass plant response rating” value [16, 22] was 0 and the “Blackgrass plant response rating” value [16, 23] was 60. The “Blackgrass plant response rating” value [16, 24] was 85 and the “Plant response rating, Blackgrass” value [16] was 10.
In the case of `CCOc1cn(-c2c(Br)cccc2Oc2ncc(Cl)cn2)nn1` [Compound 84], the “Foxtail, Giant plant response rating” value [1, 25] is reported as 40, the “Plant response rating (0 to 100), Foxtail, Giant” value ([1]; 125 g ai/ha, postemergence) is reported as 50 and the “Plant response rating, Foxtail, Giant” value [1, 21] is reported as 5. The “Plant response rating, Foxtail, Giant” value [1, 19] was 5, the “Plant response rating (0 to 100), Oat, Wild” value ([3]; 125 g ai/ha, postemergence) was 15 and the “Plant response rating, Oat, Wild” value [3, 26] was 0. The “Plant response rating, Oat, Wild” value ([3]; Postemergence, 62 g ai/ha) was 5, the “Blackgrass plant response rating” value [4, 25] was 5 and the “Plant response rating (0 to 100), Blackgrass” value ([4]; 125 g ai/ha, postemergence) was 20. For the same molecule, the “Plant response rating, Blackgrass” value [4, 21] was 5, the “Plant response rating, Blackgrass” value [4, 19] was 5 and the “Nutsedge, Yellow plant response rating” value [5, 22] was 0. For the same molecule, the “Nutsedge, Yellow plant response rating” value [5, 23] was 5, the “Nutsedge, Yellow plant response rating” value [5, 24] was 40 and the “Plant response rating, Nutsedge, Yellow” value [5] was 0. The “Plant response rating, Pigweed” value ([6]; 125 g ai/ha, 0 to 100 scale where 0 is no effect and 100 is complete control) was 100, the “Pigweed plant response rating” value ([6]; 500 g ai/ha) was 100 and the “Soybean plant response rating” value [7, 22] was 0. For the same molecule, the “Soybean plant response rating” value [7, 23] was 60, the “Soybean plant response rating” value [7, 24] was 70 and the “Plant response rating, Soybean” value [7] was 20. For the same molecule, the “Morningglory plant response rating” value [8, 22] was 0, the “Morningglory plant response rating” value [8, 23] was 25 and the “Morningglory plant response rating” value [8, 24] was 100. The “Plant response rating, Morningglory” value [8] was 10, the “Chickweed plant response rating” value [9, 25] was 10 and the “Plant response rating (0 to 100), Chickweed” value ([9]; 125 g ai/ha, postemergence) was 50. The “Plant response rating, Chickweed” value [9, 21] was 10, the “Plant response rating, Chickweed” value [9, 19] was 40 and the “Ragweed plant response rating” value [10, 22] was 0. The “Ragweed plant response rating” value [10, 23] was 60, the “Ragweed plant response rating” value [10, 24] was 85 and the “Plant response rating, Ragweed” value [10] was 60. For the same molecule, the “Corn plant response rating” value [11, 25] was 0, the “Plant response rating (0 to 100), Corn” value ([11]; 125 g ai/ha, postemergence) was 5 and the “Plant response rating, Corn” value [11, 21] was 0. For the same molecule, the “Plant response rating, Corn” value [11, 19] was 0, the “Barnyardgrass plant response rating” value [12, 25] was 0 and the “Plant response rating (0 to 100), Barnyardgrass” value ([12]; 125 g ai/ha, postemergence) was 15. For the same molecule, the “Plant response rating, Barnyardgrass” value [12, 21] was 0, the “Plant response rating, Barnyardgrass” value [12, 19] was 0 and the “Pigweed plant response rating” value [13, 22] was 85. For the same molecule, the “Pigweed plant response rating” value [13, 23] was 100, the “Pigweed plant response rating” value [13, 24] was 100 and the “Plant response rating, Pigweed” value [13] was 100. The “Ryegrass, Italian plant response rating” value [14, 22] was 0, the “Ryegrass, Italian plant response rating” value [14, 23] was 5 and the “Ryegrass, Italian plant response rating” value [14, 24] was 5. For the same molecule, the “Plant response rating, Ryegrass, Italian” value [14] was 5, the “Plant response rating (0 to 100), Wheat” value ([15]; 125 g ai/ha, postemergence) was 0 and the “Plant response rating, Wheat” value [15, 26] was 0. For the same molecule, the “Plant response rating, Wheat” value ([15]; Postemergence, 62 g ai/ha) was 0, the “Blackgrass plant response rating” value [16, 22] was 0 and the “Blackgrass plant response rating” value [16, 23] was 40. For the same molecule, the “Blackgrass plant response rating” value [16, 24] was 85 and the “Plant response rating, Blackgrass” value [16] was 5.
